For orientation: IC50 means the point on the concentration scale where inhibition reaches its midpoint.

This passage reports IC50 results from patent publication US20230031406A1, “COMPOUNDS AND COMPOSITIONS FOR TREATING CONDITIONS ASSOCIATED WITH NLRP ACTIVITY” (Novartis AG, priority 2018, published 2023).

The experiment has as its system PMA-differentiated THP-1 cells. In words: hTHP-1 assay containing 10% fetal bovine serum (IL-1β production, Tables B5 and B6). Format: cell-based, human. As to the method: The following protocol is suitable for testing the activity of the compounds disclosed herein. Procedure 1: IL-1β Production in PMA-Differentiated THP-1 Cells Stimulated with Gramicidin.
THP-1 cells were purchased from the American Type Culture Collection and sub-cultured according to instructions from the supplier. Cells were cultured in complete RPMI 1640 (containing 10% heat inactivated FBS, penicillin (100 units/ml) and streptomycin (100 μg/ml)), and maintained in log phase prior to experimental setup. Prior to the experiment, compounds were dissolved in dimethyl sulfoxide (DMSO) to generate a 30 mM stock. The compound stock was first pre-diluted in DMSO to 3, 0.34, 0.042 and 0.0083 mM intermediate concentrations and subsequently spotted using Echo550 liquid handler into an empty 384-well assay plate to achieve desired final concentration (e.g. 100, 33, 11, 3.7, 1.2, 0.41, 0.14, 0.046, 0.015, 0.0051, 0.0017 μM). DMSO was backfilled in the plate to achieve a final DMSO assay concentration of 0.37%. The plate was then sealed and stored at room temperature until required.
THP-1 cells were treated with PMA (Phorbol 12-myristate 13-acetate) (20 ng/ml) for 16-18 hours. On the day of the experiment the media was removed and adherent cells were detached with trypsin for 5 minutes. […] The cells were plated in the 384-well assay plate containing the spotted compounds at a density of 50,000 cells/well (final assay volume 50 μl). Cells were incubated with compounds for 1 hour and then stimulated with gramicidin (5 μM) (Enzo) for 2 hours. Plates were then centrifuged at 340 g for 5 min. Cell free supernatant (40 μL) was collected using a 96—CHannel PlateMaster (Gilson) and the production of IL-1β was evaluated by HTRF (cisbio). The plates were incubated for 18 h at 4° C. and read using the preset HTRF program (donor emission at 620 nm, acceptor emission at 668 nm) of the SpectraMax i3x spectrophotometer (Molecular Devices, software SoftMax 6). A vehicle only control and a dose titration of CRID3 (100-0.0017 μM) were run concurrently with each experiment.
Procedure 2: IL-1β Production in PMA-Differentiated THP-1 Cells Stimulated with Gramicidin.
THP-1 cells were purchased from the American Type Culture Collection and sub-cultured according to instructions from the supplier. Prior to experiments, cells were cultured in complete RPMI 1640 (containing 10% heat inactivated FBS, penicillin (100 units/ml) and streptomycin (100 μg/ml)), and maintained in log phase prior to experimental setup. Prior to the experiment THP-1 were treated with PMA (Phorbol 12-myristate 13-acetate) (20 ng/ml) for 16-18 hours. Compounds were dissolved in dimethyl sulfoxide (DMSO) to generate a 30mM stock. On the day of the experiment the media was removed and adherent cells were detached with trypsin for 5 minutes. […] The cells were plated in a 384-well plate at a density of 50,000 cells/well (final assay volume […]). Compounds were first dissolved in assay medium to obtain a 5× top concentration of 500 μM. 10 step dilutions (1:3) were then undertaken in assay medium containing 1.67% DMSO. 5× compound solutions were added to the culture medium to achieve desired final concentration (e.g. 100, 33, 11, 3.7, 1.2, 0.41, 0.14, 0.046, 0.015, 0.0051, 0.0017 μM). Final DMSO concentration was at 0.37%. Cells were incubated with compounds for 1 hour and then stimulated with gramicidin (5 μM) (Enzo) for 2 hours. Plates were then centrifuged at 340 g for 5 min. Cell free supernatant (40 μL) was collected using a 96—CHannel PlateMaster (Gilson) and the production of IL-1β was evaluated by HTRF (cisbio). A vehicle only control and a dose titration of CRID3 (100-0.0017 μM) were run concurrently with each experiment.
Tables B1, B2, B3, and B4 show the biological activity of compounds in hTHP-1 assay containing 2% fetal bovine serum. […] Key: <0.008 μM=“++++++”; ≥0.008 and <0.04 μM=“+++++”; >0.04 and <0.2 μM=“++++”; ≥0.2 and <1 μM=“+++”; ≥1 and <5 μM=“++”; ≥5 and <30 μM=“+”. […]

[1] abbreviates: Homo sapiens, THP-1, read-out: hTHP-1 IC50 in 10% FBS, hTHP-1 assay containing 10% fetal bovine serum, Table B5.
Where [2] appears, read: Homo sapiens, THP-1, read-out: hTHP-1 IC50 in 10% FBS, hTHP-1 assay containing 10% fetal bovine serum, Table B6.

Like-named read-outs stand apart in the source and are kept apart here. Bounds are passed on as bounds.

For the molecule `CCn1cc(F)c(S(N)(=O)=NC(=O)Nc2c3c(nc(C)c2C(F)(F)F)CCC3)n1` (stereo not shown) [Compound 1012, 1-Ethyl-4-fluoro-N′-((2-methyl-3-(trifluoromethyl)-6,7-dihydro-5H-cyclopenta[b]pyridin-4-yl)carbamoyl)-1H-pyrazole-3-sulfonimidamide], under setting [1], the IC50 was in the range of 40 to 200 nM.

As for `NS(=O)(=NC(=O)Nc1c2c(nc3c1CCC31CC1)CCC2)c1nn(C2CC2)cc1F` (stereo not shown) [Example 857, 1-Cyclopropyl-4-fluoro-N′-((1′,5′,6′,7′-tetrahydro-2′H-spiro[cyclopropane-1,3′-dicyclopenta[b,e]pyridin]-8′-yl)carbamoyl)-1H-pyrazole-3-sulfonimidamide], under setting [2], the half-maximal inhibitory concentration (IC50) lay within 40 to 200 nM.

As to `CC(C)n1cc(F)c(S(N)(=O)=NC(=O)Nc2c3c(nc(C(F)(F)F)c2C2CC2)CCC3)n1` (single isomer, unassigned) [Compound 1104b, (S) or (R)-N′-((3-cyclopropyl-2-(trifluoromethyl)-6,7-dihydro-5H-cyclopenta[b]pyridin-4-yl)carbamoyl)-4-fluoro-1-isopropyl-1H-pyrazole-3-sulfonimidamide], the IC50 (read-out: hTHP-1 IC50 in 10% FBS, hTHP-1 assay containing 10% fetal bovine serum, Table B5, listed as 827) was in the range of 1000 to 5000 nM.

With `CC(F)(F)n1cc(F)c(S(N)(=O)=NC(=O)Nc2c3c(nc4c2CCC4)CCC3)n1` (single isomer, unassigned) [Compound 1115a, (R) or (S)-1-(1,1-difluoroethyl)-4-fluoro-N′-((l,2,3,5,6,7-hexa-hydrodicyclopenta[b,e]pyridin-8-yl)carbamoyl)-1H-pyrazole-3-sulfonimidamide], the 50% inhibitory concentration (IC50) (read-out: hTHP-1 IC50 in 10% FBS, hTHP-1 assay containing 10% fetal bovine serum, Table B5, listed as 846) was 200 to 1000 nM.

With `C[C@@H]1CCc2c1nc1c(c2NC(=O)N=S(N)(=O)c2scc(C(C)(C)O)c2F)CCC1` (stereo partly drawn) [Compound 1109, 3-Fluoro-4-(2-hydroxy-propan-2-yl)-N′-(((R)-3-methyl-1,2,3,5,6,7-hexahydrodicyclopenta [b,e]pyridin-8-yl)-carbamoyl)thiophene-2-sulfonimidamide], under setting [1], the IC50 was in the range of 8 to 40 nM.

Regarding `CCn1cc(F)c(S(N)(=O)=NC(=O)Nc2c3c(nc(C)c2C(F)(F)F)CCC3)n1` (single isomer, unassigned) [Compound 1116b, (S) or (R)-1-ethyl-4-fluoro-N′-((2-methyl-3-(trifluoromethyl)-6,7-dihydro-5H-cyclopenta[b]pyridin-4-yl)carbamoyl)-1H-pyrazole-3-sulfonimidamide], for the setting “read-out: hTHP-1 IC50 in 10% FBS, hTHP-1 assay containing 10% fetal bovine serum, Table B5, listed as 849”, the half-maximal inhibitory concentration (IC50) was in the range of 1000 to 5000 nM.

`Cc1c(C(F)(F)F)nc2c(c1NC(=O)N=S(N)(=O)c1nn(C3CC3)cc1F)CCC2` (stereo not shown) [Example 854, 1-Cyclopropyl-4-fluoro-N′-((3-methyl-2-(trifluoromethyl)-6,7-dihydro-5H-cyclopenta[b]pyridin-4-yl)carbamoyl)-1H-pyrazole-3-sulfonimidamide]: under setting [2], the IC50 lay in the range of 40 to 200 nM.

As for `CC(C)(O)c1csc(S(N)(=O)=NC(=O)Nc2c3c(nc(C4CC4)c2C2CC2)CCC3)c1F` (stereo not shown) [Compound 1006, N′-((2,3-dicyclopropyl-6,7-dihydro-5H-cyclopenta[b]pyridin-4-yl)-carbamoyl)-3-fluoro-4-(2-hydroxypropan-2-yl)thiophene-2-sulfonimidamide], the half-maximal inhibitory concentration (IC50) under setting [1] is 40 to 200 nM.

As for `CCn1cc(F)c(S(N)(=O)=NC(=O)Nc2c3c(nc(C(F)(F)F)c2-c2ccc(F)c(F)c2)CCC3)n1` (single isomer, unassigned) [Compound 1113a, (S) or (R)-N′-((3-(3,4-difluorophenyl)-2-(trifluoromethyl)-6,7-dihydro-5H-cyclopenta[b]pyridin-4-yl)carbamoyl)-1-ethyl-4-fluoro-1H-pyrazole-3-sulfonimidamide], under “read-out: hTHP-1 IC50 in 10% FBS, hTHP-1 assay containing 10% fetal bovine serum, Table B5, listed as 836”, the half-inhibitory concentration (IC50) lay within 200 to 1000 nM.

In the case of `C[C@@H]1CCc2c1nc1c(c2NC(=O)N=S(N)(=O)c2nn(C3CC3)cc2F)CCC1` (stereo partly drawn) [Example 855, 1-Cyclopropyl-4-fluoro-N′-(((R)-3-methyl-1,2,3,5,6,7-hexahydrodicyclopenta[b,e]pyridin-8-yl)carbamoyl)-1H-pyrazole-3-sulfonimidamide], the IC50 under setting [2] was 8 to 40 nM.

Regarding `Cc1c(C(F)(F)F)nc2c(c1NC(=O)N=S(N)(=O)c1cnc(C(F)F)s1)CCC2` (single isomer, unassigned) [Compound 1007a, (R) or (S)-2-(Difluoromethyl)-N′-((3-methyl-2-(trifluoromethyl)-6,7-dihydro-5H-cyclopenta[b]pyridin-4-yl)carbamoyl)thiazole-5-sulfonimidamide], the 50% inhibitory concentration (IC50) (read-out: hTHP-1 IC50 in 10% FBS, hTHP-1 assay containing 10% fetal bovine serum, Table B5, listed as 829) fell in the range of 1000 to 5000 nM.

On to `C[C@@H](O)Cn1cc(F)c(S(N)(=O)=NC(=O)Nc2c3c(nc4c2CCC42CC2)CCC3)n1` (stereo partly drawn) [Compound 1119, 4-Fluoro-1-((R)-2-hydroxypropyl)-N′-((1′,5′,6′,7′-tetrahydro-2′H-spiro[cyclopropane-1,3′-dicyclopenta[b,e]pyridin]-8′-yl)carbamoyl)-1H-pyrazole-3-sulfonimidamide], for which the IC50 under setting [1] lay within 8 to 40 nM.

For the molecule `Cc1nc2c(c(NC(=O)N=S(N)(=O)c3scc(C(C)(C)O)c3F)c1-c1ccccc1)CCC2` (single isomer, unassigned) [Compound 1110b, (R) or (S)-3-fluoro-4-(2-hydroxypropan-2-yl)-N′-((2-methyl-3-phenyl-6,7-dihydro-5H-cyclopenta[b]pyridin-4-yl)carbamoyl)thiophene-2-sulfonimidamide], the half-maximal inhibitory concentration (IC50) (read-out: hTHP-1 IC50 in 10% FBS, hTHP-1 assay containing 10% fetal bovine serum, Table B5, listed as 845) is less than 8 nM.

As to `C[C@@H]1CCc2c1nc1c(c2NC(=O)N=S(N)(=O)c2scc(C(C)(C)O)c2F)CCC1` (single isomer, unassigned) [Compound 1109b, (S) or (R)-3-fluoro-4-(2-hydroxypropan-2-yl)-N′-(((R)-3-methyl-1,2,3,5,6,7-hexahydrodicyclopenta [b,e]pyridin-8-yl)-carbamoyl) thiophene-2-sulfonimidamide], the half-maximal inhibitory concentration (IC50) (read-out: hTHP-1 IC50 in 10% FBS, hTHP-1 assay containing 10% fetal bovine serum, Table B5, listed as 843) is 200 to 1000 nM.

For `Cc1c(C(F)(F)F)nc2c(c1NC(=O)N=S(N)(=O)c1scc(C(C)(C)O)c1F)CCC2` (single isomer, unassigned) [Compound 1108b, (S) or (R)-3-fluoro-4-(2-hydroxypropan-2-yl)-N′-((3-methyl-2-(trifluoromethyl)-6,7-dihydro-5H-cyclopenta[b]pyridin-4-yl)carbamoyl)thiophene-2-sulfonimidamide], the IC50 (read-out: hTHP-1 IC50 in 10% FBS, hTHP-1 assay containing 10% fetal bovine serum, Table B5, listed as 841) was in the range of 1000 to 5000 nM.

Turning to `NS(=O)(=NC(=O)Nc1c2c(nc3c1CCC3)CCC2)c1nn(C2CC2)cc1F` (single isomer, unassigned) [Example 864, (S) or (R)-1-cyclopropyl-4-fluoro-N′-((1,2,3,5,6,7-hexahydrodicyclopenta[b,e]pyridin-8-yl)carbamoyl)-1H-pyrazole-3-sulfonimidamide], where the note is “read-out: hTHP-1 IC50 in 10% FBS, hTHP-1 assay containing 10% fetal bovine serum, Table B6”, the IC50 was 200 to 1000 nM.
